According to PMC10291556 (Journal of Medicinal Chemistry, 2023):

How the values were obtained:
HeLa cells = assay: Re-adhesion assay; type: cell-based, human; conditions: 10× IC50, 1 h
Procedure: Figure 7 (A–E) Wound healing assay. The monolayer of HeLa cells was scratched with a 10 μL tip, and a starving medium containing the tested complexes was added. The shots were taken at times 0 and 24 h. (A) Control, non-treated cells; (B) cells treated with complex 3; (C) cells treated with complex 4. […] (E) Evaluation of wound healing assay. Bars represent gap size vs. Control (100%), following a 24 h incubation with the investigated compounds. Light gray bars: complex 3; dark gray bars: complex 4; black bar: complex 2. (F) Re-adhesion assay. […] Following trypsinization, the cells were resuspended in Dulbecco’s modified Eagle medium (DMEM), counted, left to reconstitute adhesive membrane proteins for 30 min, and re-seeded at the density of 3× 10^4 cells/100 μL/well. After 30 min of incubation at 37 °C, the re-adhesion activity was determined as described in the Experimental Section. […]
HeLa cells were grown in 6-well plates for 24 h. […] Following the treatment, the cells were trypsinized, washed, and resuspended in fresh serum-free medium, counted, and left at room temperature for 30 min to allow surface receptor reconstitution. […] The number of adhered cells was determined with sulforhodamine B (SRB) assay. […] The bound SRB was dissolved in 10 mM Tris base (pH 10.5), and the absorbance was recorded at 570 nm with an Absorbance Reader (SUNRISE TECAN, SCHOELLER). […]

COX-2 in HeLa cells = assay: Western blotting of COX-2; type: cell-based, human; conditions: 24 h, 1×, 3× IC50, Western blot
Procedure: (B) Quantitative evaluation of Western blotting data; the relative expression of COX-2 normalized to GAPDH. Data represents the mean ± SD of two experiments. The stars indicate the statistical significance of difference vs control determined with the Student t-test (*p < 0.05, **p < 0.01, ***p < 0.001).
HeLa cells were seeded in 60 mm dishes at a density of 3 × 10^5 cells/dish and cultured for 20 h. The cells were then treated with the tested compounds at concentrations indicated in the text. After 24 h of treatment, the cells were scraped, washed, and pelleted. […] 4–20% SDS-PAGE (sodium dodecyl sulfate-polyacrylamide gel electrophoresis) (Mini-PROTEAN TGX Precast Gel) was used to resolve the proteins. After transferring to the polyvinylidene fluoride membrane, the proteins were detected using appropriate antibodies: anti-GAPDH antibody (mouse, Sigma-Aldrich), Anti-COX-2 (rabbit, Abcam), Anti-α-, β-, or γ-tubulin (all rabbit, Abcam), Anti-β-actin (mouse, Abcam), Goat Anti-Rabbit IgG(HRP) (Abcam; HRP = horseradish peroxidase), and Goat Anti-Mouse IgG(HRP) (ThermoFisher Scientific). SignalFire ECL Reagent (A + B) was used as a substrate for HRP, and the luminescence was recorded with Amersham Imager 680. The densities in the images were assessed with the Aida image analysis software.

MRC-5 = assay: MTT assay in non-cancerous fibroblasts, 72 h; type: cell-based; conditions: non-cancerous human fibroblasts, 72 h incubation, mean ± SD
Procedure: Cells were treated with the tested compounds in a final volume of 200 μL/well. […] Calbiochem, Darmstadt, Germany) was added, and the cells were incubated for an additional 2–4 h. The medium was removed, and the insoluble formazan product was dissolved in 100 μL/well DMSO. […] The read values were converted to the percentage of control. […] All experiments were made in triplicate.

tubulin in HeLa cells = assay: Western blotting of tubulin; type: cell-based, human; conditions: 24 h, 0.25× or 0.5× IC50,72h, Western blot
Procedure: Figure 2 Western blotting analyses of tubulin in protein extract from HeLa cells treated with the investigated Pt complexes. (A) Representative membranes. […] Proteins from control, untreated cells were loaded to lane C. (B) Quantitative data evaluation; bars represent mean ± SD from two independent experiments.
HeLa cells were seeded in 60 mm dishes at a density of 3 × 10^5 cells/dish and cultured for 20 h. The cells were then treated with the tested compounds at concentrations indicated in the text. After 24 h of treatment, the cells were scraped, washed, and pelleted. […] After transferring to the polyvinylidene fluoride membrane, the proteins were detected using appropriate antibodies: anti-GAPDH antibody (mouse, Sigma-Aldrich), Anti-COX-2 (rabbit, Abcam), Anti-α-, β-, or γ-tubulin (all rabbit, Abcam), Anti-β-actin (mouse, Abcam), Goat Anti-Rabbit IgG(HRP) (Abcam; HRP = horseradish peroxidase), and Goat Anti-Mouse IgG(HRP) (ThermoFisher Scientific). SignalFire ECL Reagent (A + B) was used as a substrate for HRP, and the luminescence was recorded with Amersham Imager 680. The densities in the images were assessed with the Aida image analysis software.

MDA-MB-231 = assay: MTT antiproliferative assay, 72 h; type: cell-based, human; conditions: MTT, 72 h incubation, mean ± SD; read-out: IC50 MDA-MB-231
Procedure: Cells were treated with the tested compounds in a final volume of 200 μL/well. […] Calbiochem, Darmstadt, Germany) was added, and the cells were incubated for an additional 2–4 h. The medium was removed, and the insoluble formazan product was dissolved in 100 μL/well DMSO. The absorbance was read at 570 nm (vs 620 nm) using an Absorbance Reader (SUNRISE TECAN SCHOELLER). The read values were converted to the percentage of control. […] All experiments were made in triplicate.

[1] = test system: DNA isolated from HeLa cells; assay: Pt associated with DNA isolated from treated HeLa cells; type: cell-based, human; conditions: 1 µM compound, 6 h, mean ± SD
Excerpt: page 16: Table S1: […] concentration of tested compounds for 6 ha. […] Figure S19: A. Representative histograms obtained by flow cytometric analysis of calreticulin exposure in HeLa cells treated with indicated compounds. B. An example of gating DAPI negative population. Only DAPI-negative cells were taken for the evaluation.

SMILES | re-adhesion to the growth surface (HeLa cells) | intracellular level of COX-2 protein (COX-2 in HeLa cells) | IC50 (MRC-5) [nM] | reduction of the amount of tubulin in cell extracts (tubulin in HeLa cells) | IC50 (MDA-MB-231) [nM] | amount of Pt associated with DNA [1] [pg Pt/µg DNA]
Cc1c(C)c2c3c4c1=CC=C[N]4[Pt][N]3C=CC=2.NCCNC(=O)Cc1ccccc1Nc1c(Cl)cccc1Cl.NCCNC(=O)Cc1ccccc1Nc1c(Cl)cccc1Cl.N[C@H]1CCCC[C@@H]1N [complex 4, Pt^IV56MeSS(DCF)2] | lower the ability of HeLa cells to re-adhere to the growth surface | able to reduce the intracellular level of COX-2 protein | 320 ± 80 | higher potency of the two complexes to reduce the amount of tubulin | 290 ± 40 | 4.6 ± 0.3
Cc1c(C)c2c3c4c1=CC=C[N]4[Pt]([Cl])[N]3C=CC=2.NCCNC(=O)Cc1ccccc1Nc1c(Cl)cccc1Cl.N[C@H]1CCCC[C@@H]1N [complex 3, Pt(IV)56MESSenDCFCl] | lower the ability of HeLa cells to re-adhere to the growth surface | able to reduce the intracellular level of COX-2 protein | 700 ± 100 | higher potency of the two complexes to reduce the amount of tubulin | 400 ± 100 | 2.3 ± 0.2
